Measurements reported in PMC8494816 (Scientific Reports, 2021).

Tests used:
[1] = biological target: P2X3 homotrimeric receptors; design: method as in PMID 30902655; conditions: cited from earlier work
[2] = biological target: P2X2/3 heterotrimeric receptors; design: method as in PMID 30902655; conditions: cited from earlier work
patients with RUCC = conditions: cited from earlier work; for efficacy in treating RUCC patients: phase IIa setting
animal models = test system: animal models; design: method as in PMID 30902655; conditions: cited from earlier work
[3] = biological target: T1, native channels from DRG (predominately P2X3 receptors) (Rattus norvegicus, UniProt P49654); assay: Whole-cell patch-clamp assay in rat neurons (DRG); type: cell-based; conditions: female Sprague Dawley rat neurons, α,β-meATP 10 µM
T1 construct: native channels from both DRG (predominately P2X3 receptors) and nodose ganglia (NDG, predominately P2X2/3 receptors) rat tissues; from tissue; host or cells: primary neurons from dorsal root ganglia (L6–L4) of female Sprague Dawley rats
T1 sequence (P49654 1-397): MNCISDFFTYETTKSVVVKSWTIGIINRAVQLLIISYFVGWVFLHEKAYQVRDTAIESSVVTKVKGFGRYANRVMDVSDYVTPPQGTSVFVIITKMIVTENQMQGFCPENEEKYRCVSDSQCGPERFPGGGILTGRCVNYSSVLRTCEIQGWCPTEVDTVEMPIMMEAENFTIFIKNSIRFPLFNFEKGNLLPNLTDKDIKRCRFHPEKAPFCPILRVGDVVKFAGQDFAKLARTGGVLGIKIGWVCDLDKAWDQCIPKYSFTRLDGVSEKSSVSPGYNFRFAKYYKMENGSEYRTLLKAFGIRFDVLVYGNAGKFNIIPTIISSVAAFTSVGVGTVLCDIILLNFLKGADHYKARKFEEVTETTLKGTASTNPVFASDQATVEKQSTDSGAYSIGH
Procedure: Experiments were performed under the whole-cell patch-clamp configuration at a holding potential of – 80 mV at room temperature. […] The cells were dissociated with Accumax, centrifuged at 1000 rpm for 3 min, re-suspended in manual patch-clamp buffer, and then plated in dishes at a density of ~ 50,000 cells/dish. The currents were recorded using HEKA amplifiers and Patchmaster software (HEKA Electronics). The bath solution contained 140 mM NaCl, 5 mM KCl, 1 mM CaCl2, 2 mM MgCl2, 25 mM HEPES, and 10 mM glucose, at pH 7.4. The intracellular solution contained 140 mM CsCl, 10 mM HEPES, and 10 mM BAPTA, at pH 7.0. […] The recordings were performed in a cumulative manner with 4- or 8-min incubation times per compound concentration. Hexokinase (50 U/mL) was added to reduce channel desensitization when recording human and rat P2X3 receptor neurons. A seal resistance of minimum 250 MΩ and a series resistance of less than 20 MΩ were applied as quality control parameters. The effect at each concentration of antagonist was determined according to the following equation: % response = (100 * Idrug)/Icontrol), where Icontrol was the peak current amplitude of the last agonist addition prior to incubation with the antagonist, and Idrug was the peak current amplitude in the presence of an antagonist. Each concentration of antagonist was tested on a minimum of three independent cells. […]

rP2X3 receptors = biological target: T2, rP2X3 receptors (Rattus norvegicus, UniProt P49654); assay: cell-based
T2 sequence (P49654 1-397): T1 sequence (P49654 1-397)
Procedure: (§1) Cells were maintained in Dulbecco’s Modified Eagle Medium (DMEM) media (Sigma) supplemented with 10% fetal bovine serum (FBS) (Sigma) in a humidified incubator with 5% CO2 at 37 °C.
(§2) P2X receptor-induced changes in intracellular calcium levels were monitored using the calcium-chelating dye, Fluo-4AM (Molecular Probes), quantitated with a fluorescence imaging plate reader (FLEX/FLIPR station; Molecular Devices, Sunnyvale, CA, USA). Cells expressing P2X3 or P2X2/3 receptors were plated at a density of 15,000 cells/well in collagen-coated 384-well plates approximately 20 h before assay.

[4] = biological target: T3, homotrimeric hP2X7 receptor (Homo sapiens, UniProt Q99572); assay: Recombinant cell line selectivity assay
T3 sequence (Q99572 1-595): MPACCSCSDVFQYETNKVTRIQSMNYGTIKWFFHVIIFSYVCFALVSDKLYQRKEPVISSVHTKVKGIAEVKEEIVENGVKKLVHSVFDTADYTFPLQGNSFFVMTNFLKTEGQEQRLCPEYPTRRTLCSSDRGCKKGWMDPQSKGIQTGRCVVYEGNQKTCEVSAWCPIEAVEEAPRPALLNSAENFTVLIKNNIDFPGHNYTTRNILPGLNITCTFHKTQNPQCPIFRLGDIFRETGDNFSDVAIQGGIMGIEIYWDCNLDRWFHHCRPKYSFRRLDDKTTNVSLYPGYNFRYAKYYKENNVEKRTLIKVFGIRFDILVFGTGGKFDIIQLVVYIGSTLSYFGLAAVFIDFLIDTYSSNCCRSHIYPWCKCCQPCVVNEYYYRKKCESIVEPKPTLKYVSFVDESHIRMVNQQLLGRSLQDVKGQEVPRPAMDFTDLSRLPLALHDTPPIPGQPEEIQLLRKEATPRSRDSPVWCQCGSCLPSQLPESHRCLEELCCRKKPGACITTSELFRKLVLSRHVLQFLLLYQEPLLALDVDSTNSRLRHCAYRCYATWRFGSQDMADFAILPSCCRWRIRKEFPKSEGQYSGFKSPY

[5] = test system: CFA-induced mechanical hyperalgesia in male Sprague Dawley rats; assay: Rat CFA-induced mechanical hyperalgesia model (PAM, paw withdrawal threshold)
Procedure: Mechanical hyperalgesia was induced in 32 healthy male Sprague Dawley rats by injecting 25 µL of CFA (1 mg/mL) unilateral into the plantar surface of one hind paw. Mechanical hyperalgesia was measured using the Pressure Application Measurement apparatus (Ugo Basile, Comerio, Italy). Briefly, a linearly increasing pressure was applied to an area of ~ 50 mm^2 of the plantar side of the hind paw until a behavioral response (paw withdrawal) was observed, or until the pressure reached 1000-g force. The pressure at which the behavioral response occurred was recorded as the PWT. Both CFA-injected and contralateral PWTs were determined for each rat, in each treatment group, and at each time point of the study. […] All dose formulations were letter coded and administered to the animals by one technician not involved in conducting the behavioral PAM testing. All PAM measurements were performed by a second technician who was blinded to the treatments received by the animals.
All data are expressed as mean (or mean ± SD), unless otherwise indicated. Data were analyzed with either GraphPad Prism (v6.03, https://www.graphpad.com/scientific-software/prism/) or the Excel Fit software. For the rat hyperalgesia model, data were analyzed by computing the mean PWT for each treatment group, for CFA-injected and non-injected hind paws, and at each time point of the study. Mechanical hyperalgesia in vehicle control group was evaluated by carrying out an unpaired t-test between ipsilateral and contralateral paw values at each time point. The effect of the test compound on hyperalgesia was evaluated by performing a two-way repeated measures-ANOVA on ipsilateral paw values, followed by a Dunnett’s post-hoc test, provided that a main effect for treatment was detected. The effect of the test compound on contralateral response was evaluated following the same statistical procedure. […] A Grubbs’ test was also performed on individual values to reveal potential outliers. A p-value of < 0.05 was considered statistically significant.

[6] = test system: CFA-induced hyperalgesia in female C57BL/6 mice; assay: Mouse CFA-induced mechanical hyperalgesia model (von Frey); conditions: oral twice daily, 48 h after CFA
Procedure: In this model, mechanical hyperalgesia was induced in female C57BL/6 mice (n = 9) by injecting CFA into the plantar surface of one hind paw and assessed using von Frey filaments. The filaments were used to stimulate the hind paw, and a behavioral response was measured depending on the strength of the von Frey filament used (expressed in [g]). […] Compounds were administered orally, twice daily, starting one hour before CFA injection. […] Mechanical hyperalgesia was induced in female C57BL/6 mice by injecting 30 µL of undiluted CFA into the medial left plantar hind paw. […] Mice were placed individually in transparent Plexiglas enclosures set on a wire mesh floor for at least 60 min prior to testing. Mechanical response thresholds were determined using calibrated von Frey monofilaments applied to the plantar surface of hind paws. The simplified up-down method[69] was used to estimate the 50% withdrawal threshold of contralateral and ipsilateral paws. […] All dose formulations were letter coded and administered to the animals by a technician not involved in conducting the behavioral von Frey testing. All von Frey measurements were performed by a second experimenter who was blinded to the treatments received by the animals. Upon completion of the experiments, mice were euthanized by exposure to carbon dioxide.

Half-life in humans = conditions: human, in vivo; data not shown
[7] = biological target: T4, homotrimeric hP2X4 receptor (Homo sapiens, UniProt Q99571); assay: Recombinant cell line selectivity assay
T4 sequence (Q99571 1-388): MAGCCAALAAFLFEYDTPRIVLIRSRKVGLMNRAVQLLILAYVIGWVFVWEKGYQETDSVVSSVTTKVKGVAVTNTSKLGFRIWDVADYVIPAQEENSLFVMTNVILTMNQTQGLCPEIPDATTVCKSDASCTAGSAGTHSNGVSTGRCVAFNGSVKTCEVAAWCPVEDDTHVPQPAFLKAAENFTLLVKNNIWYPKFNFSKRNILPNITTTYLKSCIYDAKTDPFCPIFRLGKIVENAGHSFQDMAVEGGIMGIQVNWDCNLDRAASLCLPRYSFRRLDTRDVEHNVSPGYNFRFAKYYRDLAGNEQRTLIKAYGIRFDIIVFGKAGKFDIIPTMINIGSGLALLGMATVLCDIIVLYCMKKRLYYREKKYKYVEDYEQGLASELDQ

rP2X2/3 receptors = biological target: T5, rP2X2/3 receptors (Rattus norvegicus, UniProt P49653+P49654); assay: FLIPR calcium flux assay, recombinant cells; type: cell-based
T5 sequence (P49654 1-397): T1 sequence (P49654 1-397)
T5 sequence (P49653 1-472): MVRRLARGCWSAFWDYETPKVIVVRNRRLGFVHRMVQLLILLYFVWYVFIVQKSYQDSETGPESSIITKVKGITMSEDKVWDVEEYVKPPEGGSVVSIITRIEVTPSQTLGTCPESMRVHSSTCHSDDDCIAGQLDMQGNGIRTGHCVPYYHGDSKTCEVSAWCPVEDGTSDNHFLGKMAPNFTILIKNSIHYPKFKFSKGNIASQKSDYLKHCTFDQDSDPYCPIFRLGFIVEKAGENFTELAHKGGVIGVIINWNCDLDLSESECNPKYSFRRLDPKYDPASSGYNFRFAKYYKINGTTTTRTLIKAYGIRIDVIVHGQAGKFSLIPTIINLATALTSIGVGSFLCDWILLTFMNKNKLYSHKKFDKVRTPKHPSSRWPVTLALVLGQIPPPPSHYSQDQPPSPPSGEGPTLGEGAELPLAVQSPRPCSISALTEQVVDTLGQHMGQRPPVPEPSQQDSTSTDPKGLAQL
Procedure: as §1, §2

[8] = test system: neurogenic plasma extravasation in female Sprague Dawley rats; assay: Rat model of uterine neurogenic inflammation (mustard oil, Evans blue); type: in vivo; conditions: i.v. bolus 0.7 mg/kg then infusion 0.2 mg/kg/h, vs vehicle, P < 0.01
Procedure: In this model, neurogenic inflammation was induced in anesthetized female Sprague Dawley rats by injecting mustard oil, an algogenic and sensitizing irritant, into the left uterine horn. Uterine inflammation leads to neurogenic plasma extravasation in the skin of the lower abdomen, which can be visualized via the injection of Evans blue dye[17]; the degree of inflammation can then be quantified by counting the number of blue dots.
Mustard oil (10% solution in mineral oil) was then injected into the left uterine horn (0.25 mL/rat), and 2-h later, Evans blue was injected intravenously. After 30 min, animals were killed by cardiac flushing with sterile saline. Uterine neurogenic inflammation was assessed by counting the number of blue dots on the ventral and dorsal sides in the abdominal region as an indicator of cutaneous neurogenic plasma extravasation following chemical uterine inflammation, as previously described[17].
All data are expressed as mean (or mean ± SD), unless otherwise indicated. Data were analyzed with either GraphPad Prism (v6.03, https://www.graphpad.com/scientific-software/prism/) or the Excel Fit software. […] For the rat neurogenic inflammation and dyspareunia models, data were analyzed by computing the mean number of skin dots or AUCs, respectively, for each treatment group and at each time point of the study (where appropriate). […]

[9] = test system: vaginal hyperalgesia in female Sprague Dawley rats; assay: Rat dyspareunia model (VMR to vaginal distension); conditions: vs vehicle
Procedure: The visceromotor response (VMR) to vaginal distension using an inflated vaginal balloon was determined by counting the number of abdominal muscle contractions via electromyography (EMG) in conscious animals as an objective measure of vaginal sensitivity. […] The VMR response to vaginal distension was measured at week five (on-drug) and week six (one week off-drug) post-implantation of uterine horn pieces.
The VMR to vaginal distension was used in conscious animals as an objective measure of vaginal sensitivity. […] In addition, to measure the VMR response, two Teflon-coated wire electrodes (AS632; Cooner Wire, USA) were sutured in the external oblique abdominal muscle, and then tunneled subcutaneously to be exteriorized at the base of the neck for future access. […] On the day of VMR assessment, a lubricated small balloon (embolectomy catheter 5F, 1 cm in length; IsoMed, France) was inserted into the mid-vaginal canal. […] The magnitude of the VMR at each vaginal distension test was quantified by counting manually the number of EMG spike bursts (or abdominal muscle contractions) per period of 40 s (= 0.1 mL distension volume). […] For each animal, the cumulative number of abdominal contractions was calculated and plotted against vaginal distension volume, and the corresponding AUC was calculated. […]
All data are expressed as mean (or mean ± SD), unless otherwise indicated.

hP2X1 receptors = biological target: T6, hP2X1 receptors (Homo sapiens, UniProt P51575); assay: Recombinant cell line selectivity assay
T6 sequence (P51575 1-399): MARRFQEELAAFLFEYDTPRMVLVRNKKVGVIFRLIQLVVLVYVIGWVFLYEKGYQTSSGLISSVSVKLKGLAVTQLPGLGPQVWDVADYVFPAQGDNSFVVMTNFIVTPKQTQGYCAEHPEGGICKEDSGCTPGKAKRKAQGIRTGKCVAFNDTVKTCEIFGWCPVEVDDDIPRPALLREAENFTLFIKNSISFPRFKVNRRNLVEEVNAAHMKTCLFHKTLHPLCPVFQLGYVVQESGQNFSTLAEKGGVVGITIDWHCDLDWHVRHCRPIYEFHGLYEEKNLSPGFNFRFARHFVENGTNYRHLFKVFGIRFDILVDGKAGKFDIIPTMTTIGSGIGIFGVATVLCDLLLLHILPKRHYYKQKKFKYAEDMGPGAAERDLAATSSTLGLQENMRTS

Half-life in rats = conditions: rat, in vivo; data not shown

CNC(=O)c1cc(F)c(-c2nc3cc(C)ccn3c2C[C@H]2CN(C(=O)OC)CCO2)c(F)c1 [BLU-5937]
IC50 [1]: 25 nM
IC50 [2]: > 24000 nM
primary endpoint in phase IIa study (patients with RUCC; subjects with RUCC): did not reach its desired primary endpoint
antitussive efficacy and taste disturbances in animal models (animal models): antitussive efficacy with a lack of taste disturbances

C[C@@H](Cn1c(=O)[nH]/c(=N\c2ccc(Oc3ccccn3)cc2)n(Cc2ccc(Cl)cc2)c1=O)C(=O)O [S-600918]
cough reduction and taste disturbance (patients with RUCC; patients with RUCC (n = 31)): reduce cough with a low incidence of taste disturbance
efficacy in treating RUCC patients (patients with RUCC): shown efficacy

Cc1cnc(-c2cc(O[C@@H]3CCOC3)cc(C(=O)N[C@H](C)c3cnc(C(F)(F)F)nc3)c2)s1 [eliapixant]
IC50 [3]: ~19 nM
IC50 (rP2X3 receptors): 4 nM
IC50 [4]: 50000 nM
receptor occupancy corresponding to plasma exposures at which efficacy (reversal of hyperalgesia > 50%) was observed ([5]; rat CFA model, data not shown): 80%
effect on mechanical hyperalgesia (PWT), low dose ([5]; rat, oral 1 mg/kg, n = 8, P < 0.05): moderate and statistically significant at 2 h post-treatment
effect on mechanical hyperalgesia (PWT), medium dose ([5]; rat, oral 3 mg/kg, n = 8, 2, 4, 6 h, P < 0.05 to 0.0001): robust and significant at each time point of the study
effect on mechanical hyperalgesia (PWT), high dose ([5]; rat, oral 10 mg/kg, n = 8, 2, 4, 6 h, P < 0.05 to 0.0001): robust and significant at each time point of the study
effect on mechanical hyperalgesia (Paw Withdrawal Threshold) ([5]; rat, oral, 1, 3, 10 mg/kg, 24 h after CFA, 2, 4, 6 h post-dose): significantly reduced mechanical hyperalgesia in a dose-dependent manner
minimal effective oral dose, reversal of hyperalgesia in CFA-injected paw [6]: 5 mg/kg
half-life (Half-life in humans): > 24 h
IC50 [7]: 50000 nM
IC50 (rP2X2/3 receptors): 23 nM
tolerability and taste-related adverse events (patients with RUCC; phase IIa and Ph IIb study in patients with RUCC): well tolerated with a low rate of mild taste-related adverse events
efficacy in treating RUCC patients (patients with RUCC): shown efficacy
number of blue dots on the skin (neurogenic plasma extravasation) [8]: significantly reduced number of blue dots on the skin
vaginal hyperalgesia (AUC of cumulative abdominal contractions), 1 week off drug ([9]; 15 mg/kg oral twice daily weeks 4-5, 6 weeks post-implantation, P < 0.01): significantly decreased vaginal hyperalgesia
vaginal hyperalgesia (AUC of cumulative abdominal contractions), on drug ([9]; 15 mg/kg oral twice daily, 5 weeks post-implantation, P < 0.05): significantly decreased vaginal hyperalgesia
IC50 (hP2X1 receptors): 50000 nM
half-life (Half-life in rats): ~2.8 h

COc1cc(C(C)C)c(Oc2cnc(N)nc2N)cc1S(N)(=O)=O [gefapixant]
taste-related AEs, participants (patients with RUCC; latest phase III data, RUCC): 58–69%
